# Results as given in patent US7858776B2, “Lactams and uses thereof” (AstraZeneca AB, priority 2002, dated 2010).
# Where a name gives a salt, the structure may show the parent alone.
row,melting point [°C],Structure (SMILES)
1,85 to 90,"CSCC[C@H](NC(=O)Cc1cc(F)cc(F)c1)C(=O)N[C@@H]1C(=O)Nc2ccccc2S[C@@H]1c1ccccc1 [Example 109, N^2-[(3,5-Difluorophenyl)acetyl]N^1-[(2R,3R)-4-oxo-2-phenyl-2,3,4,5-tetrahydro-1,5-benzothiazepin-3-yl]-L-methioninamide]"
2,85 to 90,"O=C(Cc1cc(F)cc(F)c1)N[C@@H](Cc1cc2ccccc2[nH]1)C(=O)N[C@@H]1C(=O)Nc2ccccc2S[C@@H]1c1ccccc1 [Example 110, N^2-[(3,5-Difluorophenyl)acetyl]-3-(1H-indol-2-yl)-N^1-[(2R,3R)-4-oxo-2-phenyl-2,3,4,5-tetrahydro-1,5-benzothiazepin-3-yl]-L-alaninamide]"
3,122 to 136,"C[C@H](NC(=O)Cc1ccccc1)C(=O)N[C@@H]1C(=O)Nc2ccccc2O[C@@H]1c1ccccc1 [Example 113, N^1-[(2R,3S)-4-Oxo-2-phenyl-2,3,4,5-tetrahydro-1,5-benzoxazepin-3-yl]-N^2-(phenylacetyl)-L-alaninamide]"
4,115 to 135,"C[C@H](NC(=O)Cc1ccccc1F)C(=O)N[C@@H]1C(=O)Nc2ccccc2O[C@@H]1c1ccccc1 [Example 114, N^2-[(2-Fluorophenyl)acetyl]-N^1-[(2R,3S)-4-oxo-2-phenyl-2,3,4,5-tetrahydro-1,5-benzoxazepin-3-yl]-L-alaninamide]"
5,130 to 140,"C[C@H](NC(=O)Cc1cccc(F)c1)C(=O)N[C@@H]1C(=O)Nc2ccccc2O[C@@H]1c1ccccc1 [Example 115, N^2-[(3-Fluorophenyl)acetyl]-N^1-[(2R,3S)-4-oxo-2-phenyl-2,3,4,5-tetrahydro-1,5-benzoxazepin-3-yl]-L-alaninamide]"
6,130 to 140,"C[C@H](NC(=O)Cc1ccc(F)cc1)C(=O)N[C@@H]1C(=O)Nc2ccccc2O[C@@H]1c1ccccc1 [Example 116, N^2-[(4-Fluorophenyl)acetyl]-N^1-[(2R,3S)-4-oxo-2-phenyl-2,3,4,5-tetrahydro-1,5-benzoxazepin-3-yl]-L-alaninamide]"

# Further lines, the compound ahead of its results:
row,Structure (SMILES),melting point [°C]
1,"C[C@H](NCCc1ccccc1)C(=O)N[C@@H]1C(=O)Nc2ccccc2S[C@@H]1c1ccccc1 (as salt: hydrochloride) [Example 98, N^1-[(2R,3R)-4-Oxo-2-phenyl-2,3,4,5-tetrahydro-1,5-benzothiazepin-3-yl]-N^2-(2-Phenylethyl)-L-alaninamide]",184 to 195
2,"C[C@H](NC(=O)Cc1cc(F)cc(F)c1)C(=O)N[C@@H]1C(=O)NCCS[C@@H]1c1ccccc1 [Example 7, N^2-[(3,5-Difluorophenyl)acetyl]-N^1-[(6R,7R)-5-oxo-7-phenyl-1,4-thiazepan-6-yl]-L-alaninamide]",128 to 133
3,"CC(C)C[C@H](O)C(=O)N[C@@H](C)C(=O)N[C@@H]1C(=O)NCCS[C@@H]1c1ccccc1 [Example 93, N^2-[(2S)-2-Hydroxy-4-methyl-1-oxopentyl]-N^1-[(6R,7R)-5-oxo-7-phenyl-1,4-thiazepan-6-yl]-L-alaninamide]",93 to 99
4,"C[C@H](NC(=O)Cc1ccccc1)C(=O)N[C@@H]1C(=O)Nc2ccccc2S[C@@H]1c1ccccc1 [Example 97, N^1-[(2R,3R)-4-Oxo-2-phenyl-2,3,4,5-tetrahydro-1,5-benzothiazepin-3-yl]-N^2-(phenylacetyl)-L-alaninamide]",114 to 124
5,"C[C@H](NC(=O)Cc1cc(F)cc(F)c1)C(=O)N[C@@H]1C(=O)Nc2ccccc2S[C@@H]1c1cccs1 [Example 99, N^2-[(3,5-Difluorophenyl)acetyl]-N^1-[(2S,3R)-4-oxo-2-(2-thienyl)-2,3,4,5-tetrahydro-1,5-benzothiazepin-3-yl]-L-alaninamide]",117 to 119
6,"C[C@H](NC(=O)Cc1cc(F)cc(F)c1)C(=O)N[C@@H]1C(=O)Nc2ccccc2S[C@@H]1c1ccco1 [Example 101, N^2-[(3,5-Difluorophenyl)acetyl]-N^1-[(2S,3R)-2-(2-furyl)-4-oxo-2,3,4,5-tetrahydro-1,5-benzothiazepin-3-yl]-L-alaninamide]",125 to 130
7,"C[C@H](NC(=O)Cc1cc(F)cc(F)c1)C(=O)N[C@@H]1C(=O)Nc2ccccc2S[C@H]1c1ccoc1 [Example 102, N^2-[(3,5-Difluorophenyl)acetyl]-N^1-[(2S,3R)-2-(3-furyl)-4-oxo-2,3,4,5-tetrahydro-1,5-benzothiazepin-3-yl]-L-alaninamide]",115 to 120
8,"C[C@H](NC(=O)Cc1cc(F)cc(F)c1)C(=O)N[C@@H]1C(=O)Nc2ccccc2S[C@@H]1c1cc(Br)cs1 [Example 104, N^1-[(2S,3R)-2-(4-Bromo-2-thienyl)-4-oxo-2,3,4,5-tetrahydro-1,5-benzothiazepin-3-yl]-N^2-[(3,5-difluorophenyl)acetyl]-L-alaninamide]",145 to 155
9,"N[C@@H](Cc1ccccc1)C(=O)N(C(=O)Cc1cc(F)cc(F)c1)[C@@H]1C(=O)Nc2ccccc2S[C@@H]1c1ccccc1 [Example 105, N-[(3,5-Difluorophenyl)acetyl]-N-[(2R,3R)-4-oxo-2-phenyl-2,3,4,5-tetrahydro-1,5-benzothiazepin-3-yl]-L-phenylalaninamide]",115 to 120
10,"O=C(Cc1cc(F)cc(F)c1)NCC(=O)N[C@@H]1C(=O)Nc2ccccc2S[C@@H]1c1ccccc1 [Example 106, N^2-[(3,5-Difluorophenyl)acetyl]-N^1-[(2R,3R)-4-oxo-2-phenyl-2,3,4,5-tetrahydro-1,5-benzothiazepin-3-yl]glycinamide]",125 to 130
11,"CC(C)[C@H](NC(=O)Cc1cc(F)cc(F)c1)C(=O)N[C@@H]1C(=O)Nc2ccccc2S[C@@H]1c1ccccc1 [Example 107, N^2-[(3,5-Difluorophenyl)acetyl]-N^1-[(2R,3R)-4-oxo-2-phenyl-2,3,4,5-tetrahydro-1,5-benzothiazepin-3-yl]-L-valinamide]",110 to 115
